Measured values published in patent US20210253518A1, “KINASE INHIBITOR” (NISSAN CHEMICAL CORPORATION, priority 2018, published 2021).

Columns and labels:
YAP protein [1] = assay: Imaging analysis of nuclear translocation in SKOV3 cells; type: cell-based, human; conditions: 10 μM, 4 hr, ratio of fluorescence intensity nucleus/cytoplasm, no addition 6.15
Experimental: (§1) Compounds k-1:B-1, k-1:H-1, and k-1:J-1 were evaluated for nuclear translocation of YAP protein and TAZ protein. For the nuclear translocation, imaging analysis was performed using the human ovarian cancer cell line SKOV3 (manufactured by DS Pharma Biomedical Co., Ltd) and OperettaCLS (manufactured by PerkinElmer) described below. The compounds were added such that the final concentration of the test concentration of k-1:B-1, k-1:H-1, and k-1:J-1 was 10 μM.
(§2) Human ovarian cancer cell line SKOV3 cultured according to the protocol recommended by DS Pharma Biomedical Co., Ltd. was seeded on a 96-well plate (manufactured by PerkinElmer, CellCarrier-Ultra) at 15,000 cells/90 μL/well on the cycloolefin bottom surface, and cultured in a CO2 incubator (37° C., 5% CO2) for 1 day. After culturing, 10 μL of k-1:B-1, k-1:H-1, and k-1:J-1 solutions having a concentration of 100 μM and dissolved in DMSO was added. The cells were further cultured in a CO2 incubator at 37° C. for 4 hr. The medium was exchanged with 4% para-formaldehyde, and the cells were fixed by allowing to stand at room temperature for 10 min. The fixed cells were subjected to immunostaining with AlexaFluor® 647-labeled YAP antibody (manufactured by Cell Signaling Technology), anti-mouse TAZ (D-8) antibody (manufactured by SantaCruz), AlexaFluor® 555-labeled anti-mouse IgG antibody (manufactured by Thermo Fisher Scientific), according to the recommended protocol produced by Cell Signaling Technology, and the cell nucleus was further stained with 10 μg/mL Hoechst33342 solution.
(§3) Nine fields of view were imaged per well using a 20× objective lens of Operatta CLS. The cell nucleus region and the cytoplasm region were identified from the obtained fluorescence images by using the analysis software Harmony (manufactured by PerkinElmer), and AlexaFluor® 647 fluorescence intensity per unit area and the AlexaFluor® 555 fluorescence intensity per unit area in each region were extracted. The nuclear translocation was evaluated by calculating the ratio of the fluorescence intensity of the cell nucleus region to the fluorescence intensity of the cytoplasmic region from the extracted values. The value becomes greater than 1 as the YAP protein and TAZ protein transfer into the cell nucleus, and less than 1 when localized in the cytoplasm.
(§4) The specific compound used in the present invention was evaluated for the nuclear translocation of YAP protein and TAZ protein. For the nuclear translocation, imaging analysis was performed using the human ovarian cancer cell line SKOV3 (DS Pharma Biomedical Co., Ltd) and OperettaCLS (PerkinElmer) described below. The specific compound was added such that the final concentration of the test concentration of the compound used in the present invention was 10 μM.
(§5) Human ovarian cancer cell line SKOV3 cultured according to the protocol recommended by DS Pharma Biomedical Co., Ltd. was seeded on a 96-well plate (PerkinElmer, CellCarrier-Ultra) at 15,000 cells/90 μL/well on the cycloolefin bottom surface, and cultured in a CO2 incubator (37° C., 5% CO2) for 1 day. After culturing, a solution of the specific compound used in the present invention dissolved in DMSO was added. The cells were further cultured in a CO2 incubator at 37° C. for 4 hr, the medium was exchanged with 4% para-formaldehyde, and the cells were fixed by allowing to stand at room temperature for 10 min. The fixed cells were subjected to immunostaining with AlexaFluor® 647-labeled YAP antibody (Cell Signaling Technology), anti-mouse TAZ (D-8) antibody (SantaCruz), AlexaFluor® 555-labeled anti-mouse IgG antibody (Thermo Fisher Scientific), according to the recommended protocol produced by Cell Signaling Technology, and the cell nucleus was further stained with 10 μg/mL Hoechst33342 solution.
(§6) Nine fields of view were imaged per well using a 20× objective lens of Operatta CLS. […]

TAZ protein [2] = assay: as above; type: cell-based, human; conditions: 10 μM, 4 hr, ratio of fluorescence intensity nucleus/cytoplasm, no addition 6.98
Experimental: as §1, §2, §3, §4, §5, §6

YAP protein [3] = assay: Imaging analysis of nuclear translocation in human bone marrow-derived mesenchymal stem cells; type: cell-based; conditions: 10 μM, 4 hr, no addition 8.96
Experimental: as §3
(§7) Compounds k-1:B-1, k-1:H-1, and k-1:J-1 were evaluated for nuclear translocation of YAP protein and TAZ protein. For the nuclear translocation, imaging analysis was performed using the human bone marrow-derived mesenchymal stem cells (manufactured by PromoCell) and OperettaCLS (manufactured by PerkinElmer) described in Example 4. The compounds were added such that the final concentration of the test concentration of k-1:B-1, k-1:H-1, and k-1:J-1 was 10 μM.
(§8) Human bone marrow-derived mesenchymal stem cells cultured according to the protocol recommended by PromoCell were seeded on a 96-well plate (manufactured by PerkinElmer, CellCarrier-Ultra) at 25,000 cells/90 μL/well on the cycloolefin bottom surface, and cultured in a CO2 incubator (37° C., 5% CO2) for 1 day. After culturing, k-1:B-1, k-1:H-1, and k-1:J-1 solutions having a concentration of 100 μM were added. The cells were cultured in a CO2 incubator at 37° C. for 4 hr. The medium was exchanged with 4% para-formaldehyde solution, and the cells were fixed by allowing to stand at room temperature for 10 min. The fixed cells were subjected to immunostaining by the method described in Example 4.

TAZ protein [4] = assay: as above; type: cell-based; conditions: 10 μM, 4 hr, no addition 10.05
Experimental: as §3, §7, §8

**Q.** With `CC/C(=N\NC(=O)C(C)Nc1ccccc1)c1ccc(O)c(C)c1O` (stereo not drawn) [k-1:B-1] as the compound, how does the “YAP nuclear translocation rate” value (YAP protein [1]) read?
**A.** 6.98

**Q.** What about the “TAZ nuclear translocation rate” value (TAZ protein [2]) of the same compound?
**A.** 7.93

**Q.** What about the “YAP nuclear translocation rate” value (YAP protein [3]) of the same compound?
**A.** 10.17

**Q.** And the “TAZ nuclear translocation rate” value (TAZ protein [4])?
**A.** 11.59

**Q.** How did the “YAP nuclear translocation rate” value (YAP protein [1]) turn out when `CCC(=NNC(=O)CNc1ccccc1)c1ccc(O)c(C)c1O` [k-1:H-1] was run?
**A.** 7.60

**Q.** What about the “TAZ nuclear translocation rate” value (TAZ protein [2]) of the same compound?
**A.** 8.84

**Q.** What about the “YAP nuclear translocation rate” value (YAP protein [3]) of the same compound?
**A.** 11.55

**Q.** And the “TAZ nuclear translocation rate” value (TAZ protein [4])?
**A.** 13.42

**Q.** `CC/C(=N\NC(=O)NCc1cccc(O)c1)c1ccc(O)c(C)c1O` [k-1:J-1] was tested. Which “YAP nuclear translocation rate” value (YAP protein [1]) did it give?
**A.** 7.92

**Q.** And the “TAZ nuclear translocation rate” value (TAZ protein [2])?
**A.** 9.14

**Q.** What about the “YAP nuclear translocation rate” value (YAP protein [3]) of the same compound?
**A.** 12.70

**Q.** What about the “TAZ nuclear translocation rate” value (TAZ protein [4]) of the same compound?
**A.** 14.95
